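Five compound concentrations were applied to cells in 96-well plates for 48 hours; endpoints were derived by simple linear interpolation of the resulting dose-response curve. The concentration for 50% growth inhibition is given as GI50. TGI marks complete inhibition of growth.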
Assays:
Experiment in all cases: growth of human tumour cells (NCI), 48 h
MDA-MB-231 breast = system: MDA-MB-231 breast
UO-31 renal = system: UO-31 renal
SK-MEL-28 melanoma = system: SK-MEL-28 melanoma
HS 578T breast = system: HS 578T breast
SK-MEL-5 melanoma = system: SK-MEL-5 melanoma
OVCAR-3 ovarian = system: OVCAR-3 ovarian
MCF7 breast = system: MCF7 breast
MDA-MB-435 = system: MDA-MB-435
PC-3 prostate = system: PC-3 prostate
DU-145 prostate = system: DU-145 prostate
SF-295 CNS = system: SF-295 CNS
ACHN renal = system: ACHN renal
HOP-92 NSCLC = system: HOP-92 NSCLC
MOLT-4 leukemia = system: MOLT-4 leukemia
SF-539 CNS = system: SF-539 CNS
NCI-H23 lung = system: NCI-H23 lung
U251 CNS = system: U251 CNS
A498 renal = system: A498 renal
NCI-H522 lung = system: NCI-H522 lung
RPMI-8226 leukemia = system: RPMI-8226 leukemia
OVCAR-5 ovarian = system: OVCAR-5 ovarian
SNB-19 CNS = system: SNB-19 CNS
RXF 393 renal = system: RXF 393 renal
COLO 205 colon = system: COLO 205 colon
UACC-257 melanoma = system: UACC-257 melanoma
MALME-3M melanoma = system: MALME-3M melanoma
SW-620 colon = system: SW-620 colon
SK-OV-3 ovarian = system: SK-OV-3 ovarian
SK-MEL-2 melanoma = system: SK-MEL-2 melanoma
HCT-116 colon = system: HCT-116 colon
NCI-H460 lung = system: NCI-H460 lung
CCRF-CEM leukemia = system: CCRF-CEM leukemia
EKVX NSCLC = system: EKVX NSCLC
NCI/ADR-RES ovarian = system: NCI/ADR-RES ovarian
TK-10 renal = system: TK-10 renal
OVCAR-8 ovarian = system: OVCAR-8 ovarian
KM12 colon = system: KM12 colon
SF-268 CNS = system: SF-268 CNS
IGROV1 ovarian = system: IGROV1 ovarian
HT29 colon = system: HT29 colon
786-0 renal = system: 786-0 renal
BT-549 breast = system: BT-549 breast
HOP-62 NSCLC = system: HOP-62 NSCLC
SNB-75 CNS = system: SNB-75 CNS
UACC-62 melanoma = system: UACC-62 melanoma
SR leukemia = system: SR leukemia
HCC-2998 colon = system: HCC-2998 colon
T-47D breast = system: T-47D breast
SN12C renal = system: SN12C renal
OVCAR-4 ovarian = system: OVCAR-4 ovarian
NCI-H226 lung = system: NCI-H226 lung
K-562 leukemia = system: K-562 leukemia
HL-60(TB) leukemia = system: HL-60(TB) leukemia
M14 melanoma = system: M14 melanoma
LOX IMVI melanoma = system: LOX IMVI melanoma
A549 NSCLC = system: A549 NSCLC
CAKI-1 renal = system: CAKI-1 renal
HCT-15 colon = system: HCT-15 colon

`Oc1ccccc1N=Cc1c(O)ccc2ccccc12` showed a GI50 (MDA-MB-231 breast) of 5.75 µM, a TGI (MDA-MB-231 breast) of 27.5 µM and a GI50 (UO-31 renal) of 3.59 µM. The TGI (UO-31 renal) was 28.3 µM, the GI50 (SK-MEL-28 melanoma) was 22.4 µM and the TGI (SK-MEL-28 melanoma) was 84.5 µM. The GI50 (HS 578T breast) was 15 µM, the TGI (HS 578T breast) was > 100 µM and the GI50 (SK-MEL-5 melanoma) was 9.99 µM. The TGI (SK-MEL-5 melanoma) was 34.7 µM, the GI50 (OVCAR-3 ovarian) was 11.9 µM and the TGI (OVCAR-3 ovarian) was 46.1 µM. The GI50 (MCF7 breast) was 8.35 µM, the TGI (MCF7 breast) was 52.3 µM and the GI50 (MDA-MB-435) was 17 µM. For the same compound, the TGI (MDA-MB-435) was 52.6 µM, the GI50 (PC-3 prostate) was 7.28 µM and the TGI (PC-3 prostate) was 66.2 µM. For the same compound, the GI50 (DU-145 prostate) was 19.5 µM, the TGI (DU-145 prostate) was > 100 µM and the GI50 (SF-295 CNS) was 11.7 µM. For the same compound, the TGI (SF-295 CNS) was 40.4 µM, the GI50 (ACHN renal) was 4.96 µM and the TGI (ACHN renal) was 42.6 µM. For the same compound, the GI50 (HOP-92 NSCLC) was 3.17 µM, the TGI (HOP-92 NSCLC) was 18.5 µM and the GI50 (MOLT-4 leukemia) was 10.2 µM. It also gave a TGI (MOLT-4 leukemia) of 80.3 µM, a GI50 (SF-539 CNS) of 14.2 µM and a TGI (SF-539 CNS) of 39 µM. The GI50 (NCI-H23 lung) was 13.8 µM, the TGI (NCI-H23 lung) was 49.8 µM and the GI50 (U251 CNS) was 19.8 µM. The TGI (U251 CNS) was 67.9 µM, the GI50 (A498 renal) was 5.61 µM and the TGI (A498 renal) was 23.6 µM. The GI50 (NCI-H522 lung) was 6.73 µM, the TGI (NCI-H522 lung) was 39.3 µM and the GI50 (RPMI-8226 leukemia) was 2.77 µM. It also gave a TGI (RPMI-8226 leukemia) of 37 µM, a GI50 (OVCAR-5 ovarian) of 24.6 µM and a TGI (OVCAR-5 ovarian) of 62.9 µM. The GI50 (SNB-19 CNS) was 21.8 µM, the TGI (SNB-19 CNS) was > 100 µM and the GI50 (RXF 393 renal) was 10.6 µM. For the same compound, the TGI (RXF 393 renal) was 34.6 µM, the GI50 (COLO 205 colon) was 30.7 µM and the TGI (COLO 205 colon) was > 100 µM. The GI50 (UACC-257 melanoma) was 15.2 µM, the TGI (UACC-257 melanoma) was 56.6 µM and the GI50 (MALME-3M melanoma) was 5 µM. For the same compound, the TGI (MALME-3M melanoma) was 27 µM, the GI50 (SW-620 colon) was 17.3 µM and the TGI (SW-620 colon) was > 100 µM. For the same compound, the GI50 (SK-OV-3 ovarian) was 15.9 µM, the TGI (SK-OV-3 ovarian) was 54.7 µM and the GI50 (SK-MEL-2 melanoma) was 13.3 µM. It also gave a TGI (SK-MEL-2 melanoma) of 40.5 µM, a GI50 (HCT-116 colon) of 13 µM and a TGI (HCT-116 colon) of 46 µM. It also gave a GI50 (NCI-H460 lung) of 10.7 µM, a TGI (NCI-H460 lung) of 47 µM and a GI50 (CCRF-CEM leukemia) of 3.2 µM. It also gave a TGI (CCRF-CEM leukemia) of 47.1 µM, a GI50 (EKVX NSCLC) of 15.8 µM and a TGI (EKVX NSCLC) of 57.8 µM. The GI50 (NCI/ADR-RES ovarian) was 5.58 µM, the TGI (NCI/ADR-RES ovarian) was 40.8 µM and the GI50 (TK-10 renal) was 14.2 µM. For the same compound, the TGI (TK-10 renal) was 66.2 µM, the GI50 (OVCAR-8 ovarian) was 18.1 µM and the TGI (OVCAR-8 ovarian) was 72 µM. The GI50 (KM12 colon) was 16.5 µM, the TGI (KM12 colon) was > 100 µM and the GI50 (SF-268 CNS) was 15.8 µM. For the same compound, the TGI (SF-268 CNS) was 76.8 µM, the GI50 (IGROV1 ovarian) was 4.84 µM and the TGI (IGROV1 ovarian) was 26.1 µM. It also gave a GI50 (HT29 colon) of 16.4 µM, a TGI (HT29 colon) of 40.1 µM and a GI50 (786-0 renal) of 19.5 µM. It also gave a TGI (786-0 renal) of 68.3 µM, a GI50 (BT-549 breast) of 5.88 µM and a TGI (BT-549 breast) of 30 µM. The GI50 (HOP-62 NSCLC) was 17.5 µM, the TGI (HOP-62 NSCLC) was 97.6 µM and the GI50 (SNB-75 CNS) was 10.4 µM. For the same compound, the TGI (SNB-75 CNS) was 62.5 µM, the GI50 (UACC-62 melanoma) was 9.78 µM and the TGI (UACC-62 melanoma) was 38.5 µM. The GI50 (SR leukemia) was 15.3 µM, the TGI (SR leukemia) was 47.7 µM and the GI50 (HCC-2998 colon) was 16.5 µM. The TGI (HCC-2998 colon) was 72.4 µM, the GI50 (T-47D breast) was 7.5 µM and the TGI (T-47D breast) was 54.9 µM. The GI50 (SN12C renal) was 15.4 µM, the TGI (SN12C renal) was 71.9 µM and the GI50 (OVCAR-4 ovarian) was 13.4 µM. The TGI (OVCAR-4 ovarian) was 75.4 µM, the GI50 (NCI-H226 lung) was 11.5 µM and the TGI (NCI-H226 lung) was 61.7 µM. For the same compound, the GI50 (K-562 leukemia) was 15.3 µM, the TGI (K-562 leukemia) was > 100 µM and the GI50 (HL-60(TB) leukemia) was 4.95 µM. It also gave a TGI (HL-60(TB) leukemia) of 33.3 µM, a GI50 (M14 melanoma) of 13.4 µM and a TGI (M14 melanoma) of 40.2 µM. It also gave a GI50 (LOX IMVI melanoma) of 10.6 µM, a TGI (LOX IMVI melanoma) of 45 µM and a GI50 (A549 NSCLC) of 24.6 µM. It also gave a TGI (A549 NSCLC) of 91.9 µM, a GI50 (CAKI-1 renal) of 5.61 µM and a TGI (CAKI-1 renal) of 26.6 µM. The GI50 (HCT-15 colon) was 15.3 µM and the TGI (HCT-15 colon) was > 100 µM.

— PubChem BioAssay (NCI)
